Laboratory results taken from patent US8998396B2, “Treatment liquid for liquid jetting device, and cartridge containing the same” (Ricoh Company, Ltd., priority 2009, dated 2015).

Assay: Surfactant solubility in the main solvent, judged visually
Type: physicochemical
Settings: main solvent: water, glycerin and 1,3-butylene glycol
Text: The surfactant was solved into the main solvent and the solubility thereof was judged visually.
A: Solved completely (transparent and colorless)

SMILES	Solubility in the main solvent (in words)
CCCCCCCCN1CCCC1=O [LP-100, N-Octyl-2-Pyrrolidone]	solves in the main solvent
CCCCCCCCCCCCN1CCCC1=O [LP-300, N-Dodecyl-2-Pyrrolidone]	cannot solve in the main solvent
